# Assay results published in patent US9943524B2, “Use of alkaloid in preparing pharmaceutical compositions for preventing or treating pulmonary fibrosis” (China Pharmaceutical University, priority 2014, dated 2018).
# Columns and labels:
# [1] = system: pulmonary fibrosis mice induced by bleomycin; test: Activity of 8 alkaloids and pentoxyverine against pulmonary fibrosis in mice (Embodiment 3); type: in vivo, C57BL/6 mice; details: intragastric from first day after model to 21th day; for pulmonary inflammation, injury and fibrosis in HE and Masson stained pathological sections: alkaloids and pentoxyverine 30 mg/kg (FIG. 1B, 1C)
# Procedure: Female C57BL/6 mice (eight-week-old) are established for models after 7 days, the time is set for the mice to adapt to the environment. After fasts for overnight, the mice are anaesthetized by 3% chloral hydrate and fixed. Sterilize and incise neck skin longitudinally as little injury as possible. Split fascia and muscle with tweezers longitudinally and expose the windpipe. Then, about 35 μl (3.5 mg/kg) bleomycin are injected into windpipe with microinjector. Put the mice upright rapidly and rotate the mice for 3˜5 minutes, so that bleomycin is able to enter into the pulmones uniformly. Observe the breathing of mice. Sterilize neck injury with 75% alcohol tampon and stitch the wound, then 1 drop or 2 drops of benzylpenicillin injection is/are dripped into the suture. Put the mice back into dry and clean cages, and feed them normally after waking up. Operations are done on operating table at about […]. Physiological saline using in injection is injected into windpipe of sham operation group.
# Experimental mice are randomly divided into 12 groups: 10 mice in model group, 10 mice in pentoxyverine group, and 5 mice in any other group. Group 1 is sham operation group, group 2 is model group, group 3 is pentoxyverine group, group 4 is positive drug pirfenidone group, groups 5-12 are compounds I-VIII administration group respectively. Models of groups 2-12 are established by using bleomycin with the same method used in embodiment 2. From the first day after successfully establishing model, 30 mg/kg pentoxyverine and 300 mg/kg pirfenidone are given to group 3 and group 4 by means of intragastric administration respectively. 30 mg/kg compounds I-VIII are given to groups 5-12 also by means of intragastric administration respectively. Besides, same doses of solvent are given to sham operation group and model group until the 21th day. After the last intragastric administration, the mice are killed to collect the lung tissue, and the right lobule is used for determining the content of hydroxyproline, while the left lobule is used for preparing pathological sections.
# cough reflex pathway = details: in vivo; cited from earlier work
# [2] = system: cough of guinea pig induced by citric acid; details: cited from earlier work
Structure (SMILES),"pulmonary inflammation, injury and fibrosis in HE and Masson stained pathological sections [1]",antitussive effect [2],also measured
"CC[C@@H]1[C@H]2CCCCN3[C@H]2[C@H](C[C@@H]3[C@@H]2C[C@H](C)C(=O)O2)[C@@H]2[C@H]1OC(=O)[C@H]2C [Compound II, Tuberostemonine A]",recover to nearly normal structure,–,–
"C[C@@H]1C[C@]2(CCCCN3[C@H]2CC[C@H]3[C@@H]2C[C@H](C)C(=O)O2)OC1=O [croomine, reference compound]",–,–,"antitussive activities, comparison among stemona tuberosa alkaloids (cough reflex pathway): similar"
"CC[C@H]1[C@H]2[C@@H](CCCN3[C@H]2CC[C@H]3[C@@H]2C[C@H](C)C(=O)O2)O[C@]12C=C(C)C(=O)O2 [stemoninine, reference compound]",–,–,"antitussive activities, comparison among stemona tuberosa alkaloids (cough reflex pathway): similar"
"CC[C@@H]1[C@@H]2CCCCN3[C@@H]2[C@@H](C[C@H]3[C@@H]2C[C@H](C)C(=O)O2)[C@H]2[C@@H]1OC(=O)[C@H]2C [Compound III, Tuberostemonine J]",recover to nearly normal structure,very good antitussive effect,antitussive effect compared with codein [2]: weaker antitussive effect than that of codein
"CCN(CC)CCOCCOC(=O)C1(c2ccccc2)CCCC1 [Pentoxyverine, pentoxyverine, reference compound]",cannot decrease the degree of pulmonary injury and fibrosis,–,"content of hydroxyproline in lung tissue ([1]; alkaloids and pentoxyverine 30 mg/kg, pirfenidone 300 mg/kg, versus model group (FIG. 1A)): no significant difference"
"CC[C@@H]1[C@H]2CCCCN3CC[C@@H]([C@H]4[C@@H]1OC(=O)[C@H]4C)[C@@H]23 [isostenine, reference compound]",–,very good antitussive effect,–
"CC[C@@H]1[C@H]2CCCCN3[C@@H]2[C@@H](C[C@H]3[C@@H]2C[C@H](C)C(=O)O2)[C@H]2[C@@H]1OC(=O)[C@H]2C [Compound IV, Tuberostemonine H]",–,very good antitussive effect,antitussive effect compared with codein [2]: weaker antitussive effect than that of codein
